Source: PMC3274641 (Bioorganic & medicinal chemistry letters, 2011)
“Also recorded” adds a separate entry of the source. Read-outs that look alike come from different tables or passages of the source.

Columns and labels:
Hα3β4 nAChRs [1] = target: T1, Hα3β4 nAChRs (Homo sapiens, UniProt P30926+P32297); conditions: scaffolds; previously reported data; cited from earlier work
Hα4β2 nAChRs [2] = target: T2, Hα4β2 nAChRs (Homo sapiens, UniProt P17787+P43681); conditions: scaffolds; previously reported data; cited from earlier work
T2 sequence (P43681 29-627 limits assumed): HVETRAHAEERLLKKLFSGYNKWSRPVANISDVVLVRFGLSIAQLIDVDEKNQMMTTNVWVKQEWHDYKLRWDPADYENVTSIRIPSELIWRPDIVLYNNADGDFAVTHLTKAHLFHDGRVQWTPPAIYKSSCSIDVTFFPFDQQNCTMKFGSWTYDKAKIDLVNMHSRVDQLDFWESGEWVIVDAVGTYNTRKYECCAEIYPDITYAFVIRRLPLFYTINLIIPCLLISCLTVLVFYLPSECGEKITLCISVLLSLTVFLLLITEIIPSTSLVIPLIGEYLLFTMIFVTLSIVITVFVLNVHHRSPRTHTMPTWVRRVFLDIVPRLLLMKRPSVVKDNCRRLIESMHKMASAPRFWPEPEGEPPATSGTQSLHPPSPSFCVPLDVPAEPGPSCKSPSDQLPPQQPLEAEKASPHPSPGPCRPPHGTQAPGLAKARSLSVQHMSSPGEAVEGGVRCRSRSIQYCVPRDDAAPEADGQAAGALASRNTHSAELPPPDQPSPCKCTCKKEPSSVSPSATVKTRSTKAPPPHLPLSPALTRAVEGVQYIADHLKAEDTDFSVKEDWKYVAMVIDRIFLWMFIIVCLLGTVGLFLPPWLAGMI
T2 sequence (P17787 26-502): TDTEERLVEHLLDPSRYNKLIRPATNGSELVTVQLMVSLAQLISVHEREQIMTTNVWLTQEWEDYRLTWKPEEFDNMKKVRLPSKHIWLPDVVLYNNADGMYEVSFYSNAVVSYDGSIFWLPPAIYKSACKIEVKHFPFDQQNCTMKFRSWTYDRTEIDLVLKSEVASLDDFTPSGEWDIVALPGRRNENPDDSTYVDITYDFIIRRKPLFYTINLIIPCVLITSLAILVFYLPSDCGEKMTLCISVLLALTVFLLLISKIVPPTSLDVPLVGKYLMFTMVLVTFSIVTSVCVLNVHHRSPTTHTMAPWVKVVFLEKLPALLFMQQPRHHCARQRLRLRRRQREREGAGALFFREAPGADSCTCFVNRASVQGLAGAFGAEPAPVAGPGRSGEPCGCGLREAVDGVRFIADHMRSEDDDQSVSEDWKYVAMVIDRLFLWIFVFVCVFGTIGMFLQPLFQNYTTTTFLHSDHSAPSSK

Hα3β4 nAChRs [3] = target: T1, Hα3β4 nAChRs; test: Inhibition of Hα3β4 nAChRs by NAMs; assay type: cell-based; conditions: for change in potency on Hα3β4 nAChRs compared to scaffolds (in words): scaffolds KAB-18, KAB-24, COB-4, respectively
Hα4β2 nAChRs [4] = target: T2, Hα4β2 nAChRs; test: cell-based; assay type: cell-based; conditions: for fold more potent than lead molecule KAB-18: Hα4β2 nAChRs
[5] = at the 1 year mark; agonist-antagonist therapy in combination with the nicotine patch; cited from earlier work

T1 sequence (P32297 32-505): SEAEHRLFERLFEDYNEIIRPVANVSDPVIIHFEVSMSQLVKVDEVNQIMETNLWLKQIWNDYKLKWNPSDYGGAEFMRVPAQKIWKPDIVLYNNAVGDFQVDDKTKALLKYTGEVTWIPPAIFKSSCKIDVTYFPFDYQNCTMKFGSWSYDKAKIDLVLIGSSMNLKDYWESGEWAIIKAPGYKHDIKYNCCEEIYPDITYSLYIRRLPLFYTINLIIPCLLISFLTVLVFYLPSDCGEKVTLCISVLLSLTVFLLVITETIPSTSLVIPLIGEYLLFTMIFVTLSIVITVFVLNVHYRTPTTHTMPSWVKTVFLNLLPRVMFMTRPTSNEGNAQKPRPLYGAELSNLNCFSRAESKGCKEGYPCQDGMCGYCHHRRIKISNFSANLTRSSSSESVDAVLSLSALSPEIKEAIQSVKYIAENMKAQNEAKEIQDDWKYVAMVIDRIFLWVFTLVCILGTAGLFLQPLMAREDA
T1 sequence (P30926 22-498): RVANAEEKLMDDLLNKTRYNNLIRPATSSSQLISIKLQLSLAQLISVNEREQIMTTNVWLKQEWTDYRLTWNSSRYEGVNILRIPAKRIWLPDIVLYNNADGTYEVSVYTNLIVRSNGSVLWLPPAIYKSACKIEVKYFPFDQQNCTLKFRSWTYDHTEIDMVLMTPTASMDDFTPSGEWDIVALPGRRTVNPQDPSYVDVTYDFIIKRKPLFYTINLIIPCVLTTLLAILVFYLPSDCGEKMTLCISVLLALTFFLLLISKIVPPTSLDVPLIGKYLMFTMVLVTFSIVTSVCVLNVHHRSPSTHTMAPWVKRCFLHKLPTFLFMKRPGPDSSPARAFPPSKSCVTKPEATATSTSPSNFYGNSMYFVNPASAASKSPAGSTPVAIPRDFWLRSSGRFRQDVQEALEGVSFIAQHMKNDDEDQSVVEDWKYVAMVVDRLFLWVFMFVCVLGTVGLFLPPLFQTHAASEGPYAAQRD

O=C(OCC1CCN(CCCc2ccccc2)CC1)c1ccccc1-c1ccccc1 [COB-4]
nH, Hill coefficient, Hα3β4 nAChRs (Hα3β4 nAChRs [1]): −1.0 | nH, Hill coefficient, Hα4β2 nAChRs (Hα4β2 nAChRs [2]): −0.8

O=C(NCc1ccccc1)c1ccccc1-c1ccccc1 [COB-170]
IC50 (Hα3β4 nAChRs [3]): 8.5 µM | nH, Hill coefficient, Hα3β4 nAChRs (Hα3β4 nAChRs [3]; COB series): −1.8 | selectivity for Hα4β2 nAChRs over Hα3β4 nAChRs (in words) (Hα4β2 nAChRs [4]): nonselective | nH, Hill coefficient, Hα4β2 nAChRs (Hα4β2 nAChRs [4]; COB series): −1.1 | fold more potent than lead molecule KAB-18 (Hα4β2 nAChRs [4]): 2 fold

O=C(Nc1ccccc1)c1ccccc1-c1ccccc1 [COB-171]
nH, Hill coefficient, Hα3β4 nAChRs (Hα3β4 nAChRs [3]; COB series): −2.2 | selectivity for Hα4β2 nAChRs over Hα3β4 nAChRs (in words) (Hα4β2 nAChRs [4]): nonselective | nH, Hill coefficient, Hα4β2 nAChRs (Hα4β2 nAChRs [4]; COB series): −1.3 | fold more potent than lead molecule KAB-18 (Hα4β2 nAChRs [4]): 2 fold

O=C(NCc1cccc2ccccc12)c1ccccc1-c1ccccc1 [COB-172]
nH, Hill coefficient, Hα3β4 nAChRs (Hα3β4 nAChRs [3]; COB series): −0.4 | selectivity for Hα4β2 nAChRs over Hα3β4 nAChRs (in words) (Hα4β2 nAChRs [4]): maintained selectivity for Hα4β2 nAChRs | nH, Hill coefficient, Hα4β2 nAChRs (Hα4β2 nAChRs [4]; COB series): −0.7 | change in potency on Hα4β2 nAChRs (in words) (Hα4β2 nAChRs [4]; compared to lead molecule KAB-18): no change in potency; also recorded: maintained potency

O=C(Nc1ccccn1)c1ccccc1-c1ccccc1 [COB-173]
nH, Hill coefficient, Hα3β4 nAChRs (Hα3β4 nAChRs [3]; COB series): −0.9 | selectivity for Hα4β2 nAChRs over Hα3β4 nAChRs (in words) (Hα4β2 nAChRs [4]): nonselective | nH, Hill coefficient, Hα4β2 nAChRs (Hα4β2 nAChRs [4]; COB series): −1.0

O=C(Nc1ccncn1)c1ccccc1-c1ccccc1 [COB-174]
nH, Hill coefficient, Hα3β4 nAChRs (Hα3β4 nAChRs [3]; COB series): −0.9 | selectivity for Hα4β2 nAChRs over Hα3β4 nAChRs (in words) (Hα4β2 nAChRs [4]): nonselective | nH, Hill coefficient, Hα4β2 nAChRs (Hα4β2 nAChRs [4]; COB series): −1.5

O=C(Nc1cccc2ccccc12)c1ccccc1-c1ccccc1 [COB-175]
nH, Hill coefficient, Hα3β4 nAChRs (Hα3β4 nAChRs [3]; COB series): −1.2 | nH, Hill coefficient, Hα4β2 nAChRs (Hα4β2 nAChRs [4]; COB series): −0.8 | fold preference for Hα4β2 nAChRs (Hα4β2 nAChRs [4]; over Hα3β4 nAChRs): 2 fold

O=C(OC1CCCN(CCCc2ccccc2)C1)c1ccccc1-c1ccccc1 (centres unmarked) [DDR-14]
nH, Hill coefficient, Hα3β4 nAChRs (Hα3β4 nAChRs [1]): −1.4 | nH, Hill coefficient, Hα4β2 nAChRs (Hα4β2 nAChRs [2]): −1.6

O=C(OCC1CCCN(CCCc2ccccc2)C1)c1ccccc1-c1cccc2ccccc12 (centres unmarked) [FFB-1]
IC50 (Hα3β4 nAChRs [3]): 178 µM | Obs. [SI] QSSR (Hα4β2/Hα3β4) (Hα4β2 nAChRs [4]; training set, selectivity Hα4β2 vs Hα3β4): 1.29

O=C(OC1CCCN(C(=O)CCc2ccccc2)C1)c1ccccc1-c1ccccc1 (centres unmarked) [IMB-132]
nH, Hill coefficient, Hα3β4 nAChRs (Hα3β4 nAChRs [3]; IMB series): −1.6 | fold decrease in potency on Hα3β4 nAChRs compared to scaffold molecule (Hα3β4 nAChRs [3]; compared to DDR-14): 2 fold | IC50 (Hα4β2 nAChRs [4]): 2.7 µM | nH, Hill coefficient, Hα4β2 nAChRs (Hα4β2 nAChRs [4]; IMB series): −1.6

O=C(OCC1CCCN(C(=O)CCc2ccccc2)C1)c1ccccc1C(F)(F)F (centres unmarked) [IMB-134]
nH, Hill coefficient, Hα3β4 nAChRs (Hα3β4 nAChRs [3]; IMB series): −2.1 | change in potency on Hα3β4 nAChRs compared to scaffolds (in words) (Hα3β4 nAChRs [3]): no change in potency | nH, Hill coefficient, Hα4β2 nAChRs (Hα4β2 nAChRs [4]; IMB series): −1.5

O=C(OCC1CCN(C(=O)CCc2ccccc2)CC1)c1ccccc1-c1ccccc1 [IMB-135]
nH, Hill coefficient, Hα3β4 nAChRs (Hα3β4 nAChRs [3]; IMB series): −1.5 | change in potency on Hα3β4 nAChRs compared to scaffolds (in words) (Hα3β4 nAChRs [3]): no change in potency

O=C(OCC1CCCN(CCCc2ccccc2)C1)c1ccccc1-c1ccccc1 (centres unmarked) [KAB-18]
nH, Hill coefficient, Hα4β2 nAChRs (Hα4β2 nAChRs [2]): −1.4

O=C(OCC1CCCN(CCCc2ccccc2)C1)c1ccccc1C(F)(F)F (centres unmarked) [KAB-24]
nH, Hill coefficient, Hα3β4 nAChRs (Hα3β4 nAChRs [1]): −0.8 | nH, Hill coefficient, Hα4β2 nAChRs (Hα4β2 nAChRs [2]): −0.8

CNC1(C)C2CCC(C2)C1(C)C (centres unmarked) [Mecamylamine]
abstinence [5]: 40%
